Experimental data published in ChEMBL document CHEMBL3817808, “Enlarging the chemical space of anti-leishmanials: a structureactivity relationship study of peptoids against Leishmania mexicana, a causative agent of cutaneous leishmaniasis” (Medchemcomm, 2016).
Non-standard residues stand in square brackets, D forms with d. Residues, ends and D or L forms follow the SMILES beside them. Gly(Nα-4-Cl-benzyl) = O=C(O)CNCc1ccc(Cl)cc1; N(4-F-Bzl)Gly = O=C(O)CNCc1ccc(F)cc1; Gly(N-(CH2)6NH2) = NCCCCCCNCC(=O)O; Gly(N-2-aminoethyl) = NCCNCC(=O)O; N(isopentyl)Gly = CC(C)CCNCC(=O)O; Nspe = C[C@H](NCC(=O)O)c1ccccc1; Nphe = O=C(O)CNCc1ccccc1; Nleu = CC(C)CNCC(=O)O; NPrGly = CCCNCC(=O)O; Nlys = NCCCCNCC(=O)O

Legend:
[1] = test system: Leishmania mexicana; experiment: Antileishmanial activity against Leishmania mexicana MNYC/BZ/62/M379 promastigotes assessed as parasite viability measured after 1 hr by alamarBlue staining based fluorescence analysis; type: functional; details: MNYC/BZ/62/M379, 1 h, read-out: ED50 (the source's name)
[2] = test system: Leishmania mexicana; experiment: Antileishmanial activity against axenic amastigote form of Leishmania mexicana MNYC/BZ/62/M379 assessed as parasite viability measured after 1 hr by alamarBlue staining based fluorescence analysis; type: functional; details: MNYC/BZ/62/M379, 1 h, read-out: ED50 (the source's name)

SMILES | EC50 [1] | EC50 [2]
CCCCCNCC(=O)N(CC(=O)N(CC(=O)N(CCCCN)CC(=O)N(CC(=O)N(CC(=O)N(CCCCC)CC(=O)N(CC(=O)N(CC(=O)N(CCCCN)CC(=O)N(CC(=O)N(CC(N)=O)[C@@H](C)c1ccccc1)[C@@H](C)c1ccccc1)C(C)c1ccccc1)[C@@H](C)c1ccccc1)C(C)c1ccccc1)[C@@H](C)c1ccccc1)C(C)c1ccccc1)[C@@H](C)c1ccccc1 (single isomer, unassigned) | 10 µM | 17 µM
NCCCCNCC(=O)N(CC(=O)N(CC(=O)N(CCCCN)CC(=O)N(CC(=O)N(CC(=O)N(CCCCN)CC(=O)N(CC(=O)N(CC(N)=O)Cc1ccccc1)Cc1ccccc1)Cc1ccccc1)Cc1ccccc1)Cc1ccccc1)Cc1ccccc1 | > 100 µM | > 100 µM
NCCCCNCC(=O)N(CC(=O)N(CC(=O)N(CCCCN)CC(=O)N(CC(=O)N(CC(=O)N(CCCCN)CC(=O)N(CC(=O)N(CC(N)=O)Cc1ccc(F)cc1)Cc1ccc(F)cc1)Cc1ccc(F)cc1)Cc1ccc(F)cc1)Cc1ccc(F)cc1)Cc1ccc(F)cc1 (H-[Nlys][N(4-F-Bzl)Gly][N(4-F-Bzl)Gly][Nlys][N(4-F-Bzl)Gly][N(4-F-Bzl)Gly][Nlys][N(4-F-Bzl)Gly][N(4-F-Bzl)Gly]-NH2) | 19 µM | > 100 µM
NCCNCC(=O)N(CC(=O)N(CC(=O)N(CCN)CC(=O)N(CC(=O)N(CC(N)=O)Cc1ccccc1)Cc1ccccc1)Cc1ccccc1)Cc1ccccc1 (H-[Gly(N-2-aminoethyl)][Nphe][Nphe][Gly(N-2-aminoethyl)][Nphe][Nphe]-NH2) | > 100 µM | > 100 µM
CCCCCNCC(=O)N(CC(=O)N(CC(=O)N(CCCCN)CC(=O)N(CC(=O)N(CC(=O)N(CCCCN)CC(=O)N(CC(=O)N(CC(=O)N(CCCCN)CC(=O)N(CC(=O)N(CC(N)=O)[C@@H](C)c1ccccc1)[C@@H](C)c1ccccc1)C(C)c1ccccc1)[C@@H](C)c1ccccc1)[C@@H](C)c1ccccc1)[C@@H](C)c1ccccc1)C(C)c1ccccc1)[C@@H](C)c1ccccc1 (single isomer, unassigned) | 8 µM | 21 µM
NCCNCC(=O)N(CC(=O)N(CC(=O)N(CCN)CC(=O)N(CC(=O)N(CC(=O)N(CCN)CC(=O)N(CC(=O)N(CC(N)=O)Cc1ccccc1)Cc1ccccc1)Cc1ccccc1)Cc1ccccc1)Cc1ccccc1)Cc1ccccc1 (H-[Gly(N-2-aminoethyl)][Nphe][Nphe][Gly(N-2-aminoethyl)][Nphe][Nphe][Gly(N-2-aminoethyl)][Nphe][Nphe]-NH2) | > 100 µM | > 100 µM
NCCCCNCC(=O)N(CC(=O)N(CC(=O)N(CCCCN)CC(=O)N(CC(=O)N(CC(N)=O)Cc1ccc(Cl)cc1)Cc1ccc(Cl)cc1)Cc1ccc(Cl)cc1)Cc1ccc(Cl)cc1 (H-[Nlys][Gly(Nα-4-Cl-benzyl)][Gly(Nα-4-Cl-benzyl)][Nlys][Gly(Nα-4-Cl-benzyl)][Gly(Nα-4-Cl-benzyl)]-NH2) | 29 µM | > 100 µM
NCCCCCCNCC(=O)N(CC(=O)N(CC(=O)N(CCCCCCN)CC(=O)N(CC(=O)N(CC(N)=O)Cc1ccccc1)Cc1ccccc1)Cc1ccccc1)Cc1ccccc1 (H-[Gly(N-(CH2)6NH2)][Nphe][Nphe][Gly(N-(CH2)6NH2)][Nphe][Nphe]-NH2) | > 100 µM | > 100 µM
C[C@@H](c1ccccc1)N(CC(N)=O)C(=O)CN(Cc1ccc(F)cc1)C(=O)CN(CCCCN)C(=O)CN(C(=O)CN(Cc1ccc(F)cc1)C(=O)CNCCCCN)[C@@H](C)c1ccccc1 | > 100 µM | > 100 µM
CC(C)CCN(CC(=O)N(CC(N)=O)C(C)c1ccccc1)C(=O)CN(CCCCN)C(=O)CN(C(=O)CN(CCC(C)C)C(=O)CN(CCCCN)C(=O)CN(C(=O)CN(CCC(C)C)C(=O)CNCCCCN)[C@@H](C)c1ccccc1)[C@@H](C)c1ccccc1 (single isomer, unassigned) | 52 µM | > 100 µM
NCCCCNCC(=O)N(CC(=O)N(CC(=O)N(CCCCN)CC(=O)N(CC(=O)N(CC(N)=O)Cc1cccc(F)c1)Cc1cccc(F)c1)Cc1cccc(F)c1)Cc1cccc(F)c1 | > 100 µM | > 100 µM
NCCCCNCC(=O)N(CC(=O)N(CC(=O)N(CCCCN)CC(=O)N(CC(=O)N(CC(=O)N(CCCCN)CC(=O)N(CC(=O)N(CC(=O)N(CCCCN)CC(=O)N(CC(=O)N(CC(N)=O)Cc1ccc(Cl)cc1)Cc1ccc(Cl)cc1)Cc1ccc(Cl)cc1)Cc1ccc(Cl)cc1)Cc1ccc(Cl)cc1)Cc1ccc(Cl)cc1)Cc1ccc(Cl)cc1)Cc1ccc(Cl)cc1 (H-[Nlys][Gly(Nα-4-Cl-benzyl)][Gly(Nα-4-Cl-benzyl)][Nlys][Gly(Nα-4-Cl-benzyl)][Gly(Nα-4-Cl-benzyl)][Nlys][Gly(Nα-4-Cl-benzyl)][Gly(Nα-4-Cl-benzyl)][Nlys][Gly(Nα-4-Cl-benzyl)][Gly(Nα-4-Cl-benzyl)]-NH2) | 28 µM | 44 µM
COc1ccc(CN(CC(N)=O)C(=O)CN(Cc2ccc(OC)cc2)C(=O)CN(CCCCN)C(=O)CN(Cc2ccc(OC)cc2)C(=O)CN(Cc2ccc(OC)cc2)C(=O)CNCCCCN)cc1 | > 100 µM | > 100 µM
CC(C)CCN(CC(=O)N(CC(N)=O)[C@@H](C)c1ccccc1)C(=O)CN(CCCCN)C(=O)CN(C(=O)CN(CCC(C)C)C(=O)CNCCCCN)[C@@H](C)c1ccccc1 (H-[Nlys][N(isopentyl)Gly][Nspe][Nlys][N(isopentyl)Gly][Nspe]-NH2) | > 100 µM | > 100 µM
CC(C)CN(CC(=O)N(CC(N)=O)[C@@H](C)c1ccccc1)C(=O)CN(CCCCN)C(=O)CN(C(=O)CN(CC(C)C)C(=O)CNCCCCN)[C@@H](C)c1ccccc1 (H-[Nlys][Nleu][Nspe][Nlys][Nleu][Nspe]-NH2) | > 100 µM | > 100 µM
CC(c1ccccc1)N(CC(=O)N(CCCCN)CC(=O)N(CC(=O)N(CC(=O)N(CCCCN)CC(=O)N(CC(=O)N(CC(=O)N(CCCCN)CC(=O)N(CC(=O)N(CC(N)=O)[C@@H](C)c1ccccc1)Cc1ccc(F)cc1)C(C)c1ccccc1)Cc1ccc(F)cc1)C(C)c1ccccc1)Cc1ccc(F)cc1)C(=O)CN(Cc1ccc(F)cc1)C(=O)CNCCCCN (single isomer, unassigned) | 8 µM | 27 µM
CCCN(CC(=O)N(CC(N)=O)[C@@H](C)c1ccccc1)C(=O)CN(CCCCN)C(=O)CN(C(=O)CN(CCC)C(=O)CN(CCCCN)C(=O)CN(C(=O)CN(CCC)C(=O)CNCCCCN)[C@@H](C)c1ccccc1)[C@@H](C)c1ccccc1 (H-[Nlys][NPrGly][Nspe][Nlys][NPrGly][Nspe][Nlys][NPrGly][Nspe]-NH2) | > 100 µM | > 100 µM
CC(C)CCN(CC(=O)N(CC(=O)N(CCCCN)CC(=O)N(CCC(C)C)CC(=O)N(CC(=O)N(CCCCN)CC(=O)N(CCC(C)C)CC(=O)N(CC(=O)N(CCCCN)CC(=O)N(CCC(C)C)CC(=O)N(CC(N)=O)[C@@H](C)c1ccccc1)C(C)c1ccccc1)C(C)c1ccccc1)C(C)c1ccccc1)C(=O)CNCCCCN (single isomer, unassigned) | 12 µM | > 100 µM
CCCN(CC(=O)N(CC(N)=O)[C@@H](C)c1ccccc1)C(=O)CN(CCCCN)C(=O)CN(C(=O)CN(CCC)C(=O)CNCCCCN)[C@@H](C)c1ccccc1 (H-[Nlys][NPrGly][Nspe][Nlys][NPrGly][Nspe]-NH2) | > 100 µM | > 100 µM
NCCCCCCNCC(=O)N(CC(=O)N(CC(=O)N(CCCCCCN)CC(=O)N(CC(=O)N(CC(=O)N(CCCCCCN)CC(=O)N(CC(=O)N(CC(N)=O)Cc1ccccc1)Cc1ccccc1)Cc1ccccc1)Cc1ccccc1)Cc1ccccc1)Cc1ccccc1 (H-[Gly(N-(CH2)6NH2)][Nphe][Nphe][Gly(N-(CH2)6NH2)][Nphe][Nphe][Gly(N-(CH2)6NH2)][Nphe][Nphe]-NH2) | > 100 µM | > 100 µM
COc1ccc(CN(CC(N)=O)C(=O)CN(Cc2ccc(OC)cc2)C(=O)CN(CCCCN)C(=O)CN(Cc2ccc(OC)cc2)C(=O)CN(Cc2ccc(OC)cc2)C(=O)CN(CCCCN)C(=O)CN(Cc2ccc(OC)cc2)C(=O)CN(Cc2ccc(OC)cc2)C(=O)CN(CCCCN)C(=O)CN(Cc2ccc(OC)cc2)C(=O)CN(Cc2ccc(OC)cc2)C(=O)CNCCCCN)cc1 | 42 µM | > 100 µM
CCCN(CC(=O)N(CC(N)=O)[C@@H](C)c1ccccc1)C(=O)CN(CCCCN)C(=O)CN(C(=O)CN(CCC)C(=O)CN(CCCCN)C(=O)CN(C(=O)CN(CCC)C(=O)CN(CCCCN)C(=O)CN(C(=O)CN(CCC)C(=O)CNCCCCN)[C@@H](C)c1ccccc1)[C@@H](C)c1ccccc1)[C@@H](C)c1ccccc1 (H-[Nlys][NPrGly][Nspe][Nlys][NPrGly][Nspe][Nlys][NPrGly][Nspe][Nlys][NPrGly][Nspe]-NH2) | > 100 µM | > 100 µM
NCCCCNCC(=O)N(CC(=O)N(CC(=O)N(CCCCN)CC(=O)N(CC(=O)N(CC(=O)N(CCCCN)CC(=O)N(CC(=O)N(CC(N)=O)Cc1ccc(Cl)cc1)Cc1ccc(Cl)cc1)Cc1ccc(Cl)cc1)Cc1ccc(Cl)cc1)Cc1ccc(Cl)cc1)Cc1ccc(Cl)cc1 (H-[Nlys][Gly(Nα-4-Cl-benzyl)][Gly(Nα-4-Cl-benzyl)][Nlys][Gly(Nα-4-Cl-benzyl)][Gly(Nα-4-Cl-benzyl)][Nlys][Gly(Nα-4-Cl-benzyl)][Gly(Nα-4-Cl-benzyl)]-NH2) | 22 µM | 85 µM
NCCCCNCC(=O)N(CC(=O)N(CC(=O)N(CCCCN)CC(=O)N(CC(=O)N(CC(=O)N(CCCCN)CC(=O)N(CC(=O)N(CC(=O)N(CCCCN)CC(=O)N(CC(=O)N(CC(N)=O)Cc1cccc(F)c1)Cc1cccc(F)c1)Cc1cccc(F)c1)Cc1cccc(F)c1)Cc1cccc(F)c1)Cc1cccc(F)c1)Cc1cccc(F)c1)Cc1cccc(F)c1 | 14 µM | 69 µM
NCCCCNCC(=O)N(CC(=O)N(CC(=O)N(CCCCN)CC(=O)N(CC(=O)N(CC(=O)N(CCCCN)CC(=O)N(CC(=O)N(CC(=O)N(CCCCN)CC(=O)N(CC(=O)N(CC(N)=O)Cc1ccc(F)cc1)Cc1ccc(F)cc1)Cc1ccc(F)cc1)Cc1ccc(F)cc1)Cc1ccc(F)cc1)Cc1ccc(F)cc1)Cc1ccc(F)cc1)Cc1ccc(F)cc1 (H-[Nlys][N(4-F-Bzl)Gly][N(4-F-Bzl)Gly][Nlys][N(4-F-Bzl)Gly][N(4-F-Bzl)Gly][Nlys][N(4-F-Bzl)Gly][N(4-F-Bzl)Gly][Nlys][N(4-F-Bzl)Gly][N(4-F-Bzl)Gly]-NH2) | 15 µM | 75 µM
